Data reported in patent publication US10125134B2 (Mirati Therapeutics, Inc., priority 2016, dated 2018).
Where a name gives a salt, the structure may show the parent alone. Read-outs that look alike come from different tables or passages of the source. Each block holds one molecule with its values, some of them ahead of it.

Assays:
[1] = biological target: KRas G12C (Homo sapiens, UniProt P01116, C118S/C51S/C80L/G12C); test: KRas G12C Modification Assay (LCMS detection of covalent adduct); type: binding
Summary of the method: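 Cys-light KRas G12C mutant protein incubated with compound in K-Ras assay buffer, reactions quenched at set time points with 25 mM acetic acid and analysed by intact-protein LC/MS on a C-3 column. Deconvoluted mass heights expressed as percent of control (POC) relative to compound-free protein.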

[2] = system: NCI-H358 cells (express KRas G12C), Phospho-ERK; test: Cellular inhibition of KRas G12C: Phospho-ERK in NCI-H358 cells; type: cell-based; conditions: Homo sapiens
Summary of the method: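 IC50 derived by 4-parameter fit of GAPDH-normalized pERK(Thr202/Tyr204) signal, as percent of DMSO control. Signal came from in-cell immunodetection with infrared secondaries after 3 h compound exposure of KRas G12C NCI-H358 cells at 0.5% DMSO.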

[3] = normalized percent of control, tested at 5 μM concentration for 3 hours

- POC [1, 3]: B (“B”>25% POC−≤50% POC)
SMILES: C=CC(=O)N1CCN(c2nc(OCCN3CCS(=O)(=O)CC3)nc3c2CCN(c2cc(O)cc4ccccc24)C3)CC1 [Example 33, 1-(4-(2-(2-(1,1-dioxidothiomorpholino)ethoxy)-7-(3-hydroxynaphthalen-1-yl)-5,6,7,8-tetrahydropyrido[3,4-d]pyrimidin-4-yl)piperazin-1-yl)prop-2-en-1-one trifluoroacetate]
- IC50 ([2]; NCI-H358, 3 h, pERK(Thr202/Tyr204) normalized with GAPDH, NCI-H358 cells, 3 hours, read-out: IC50): > 1 µM

SMILES: C=CC(=O)N1CCN(c2nc(OCCN3CCC[C@@H](F)C3)nc3c2CCN(c2cc(O)cc4ccccc24)C3)CC1 [Example 207, (R)-1-(4-(2-(2-(3-fluoropiperidin-1-yl)ethoxy)-7-(3-hydroxynaphthalen-1-yl)-5,6,7,8-tetrahydropyrido[3,4-d]pyrimidin-4-yl)piperazin-1-yl)prop-2-en-1-one]
- POC [1, 3]: C (“C”>50% POC)
- IC50 ([2]; pERK(Thr202/Tyr204) normalized with GAPDH, NCI-H358 cells, 3 hours, read-out: IC50): > 1 µM

SMILES: C=CC(=O)N1CCN(c2nc(OCCCN3CCOCC3)nc3c2CCN(c2c(F)c(O)cc4ccccc24)C3)CC1 [Example 165, 1-[4-[7-(2-fluoro-3-hydroxy-1-naphthyl)-2-(3-morpholinopropoxy)-6,8-dihydro-5H-pyrido[3,4-d]pyrimidin-4-yl]piperazin-1-yl]prop-2-en-1-one]
- POC ([1]; 5 µM): C (key: “A”≤25% POC; “B”>25% POC−≤50% POC; “C”>50% POC)
- IC50 ([2]; NCI-H358, 3 h): > 1 µM
